In this assay the test system is TNF-induced hepatocyte apoptosis. The experiment in a line: TNF-induced hepatotoxicity in mice (serum transaminases). It is filed as in vivo, Balb/c mice. Particulars: for AST: without DK120 78. How it is done: In this example the concept that a protease inhibitor such as DK120 may attenuate inappropriate apoptosis that causes tissue damage in systemic inflammatory response syndrome (SIRS) was tested. TNF-induced hepatocyte apoptosis in mice was performed as described by Leist et al. ((1995) J. Immunol. 154:1778-1786). Briefly, Balb/c mice were injected ip with […] murine TNF combined with […] Actinomycin D/mouse. Twelve h later, mice were anesthetized and bled from the heart to measure serum transaminase levels, which are standard clinically used indicators of liver damage. Mice that were treated with protease inhibitors were injected ip with these compounds 30 min. prior to TNF. Alanine aminotransferase (ALT) and aspartate aminotransferase (AST) were assayed using a commercially available kit (Sigma). […] However, treatment with DK120 caused a doss-dependent decrease in serum transaminase levels. […] However, a drug that nonspecifically blocks all apoptotic pathways that normally function to maintain homeostasis may not be clinically desirable. Subsequent studies were performed to determine if DK120 could also suppress hepatocyte apoptosis in response to a different stimulus.
^1 Mice (2 for each treatment) were injected ip +/- DK120 30 min prio
to TNF and Actinomycin D. Twelve h later serum transaminase levels were
To further explore the specificity of DK120 attenuation of TNF-induced hepatotoxicity, several compounds were tested that were found previously not to inhibit apoptotic protease proteolytic activity as measured against a synthetic substrate (data not shown). […] Therefore, the protection mediated by DK120 is not a property of any boron-containing molecule.
^1 Mice (3 for each treatment) were injected ip +/- the inhibitors 30
min prior to TNF and Actinomycin D. Twelve h later serum transaminase

Each structure is given as a SMILES string. “And” between values parts separate entries of the source, which are not always exact repeats. Identical values can stand only once.

In the case of `C[C@H](NC(=O)OCc1ccccc1)C(=O)N[C@@H](C)C(=O)NC(Cc1ccccc1)B(O)O` (stereo partly shown) [DK120, carbobenzoxy-ala-ala-borophe], the AST by setting is: (Table 7, DK120 1 mg/kg ip 30 min prior to Actinomycin D + TNF, 12 h) 64 U/ml; (Table 7, DK120 2.5 mg/kg ip 30 min prior to Actinomycin D + TNF, 12 h) 47 U/ml; (Table 7, DK120 10 mg/kg ip 30 min prior to Actinomycin D + TNF, 12 h) 56 U/ml. In addition, the ALT by setting is: (Table 7, DK120 1 mg/kg ip 30 min prior to Actinomycin D + TNF, 12 h, without DK120 398) 232 U/ml; (Table 7, DK120 2.5 mg/kg ip 30 min prior to Actinomycin D + TNF, 12 h, without DK120 398) 145 U/ml; (Table 7, DK120 5 mg/kg ip 30 min prior to Actinomycin D + TNF, 12 h, without DK120 398) 123 U/ml; (Table 7, DK120 10 mg/kg ip 30 min prior to Actinomycin D + TNF, 12 h, without DK120 398) 50 U/ml; (mouse, in vivo) 190 +/- 21 U/ml and 141 +/- 20 U/ml. Moreover, the “Protection from TNF-induced hepatotoxicity” value (Table 10, 10 mg/kg) was “reduced levels of ALT to close to that of Actinomycin D alone”. In addition, under “ip 30 min prior to TNF”, the “Effect on TNF-induced serum transaminase levels” value was “reduced transaminase to levels very close to those seen in mice injected with Actinomycin D only”.
